{"source": "patent US20080113014A1", "about": "“Method for Screening for Compounds Safe for Gastric Mucosa” (LTT BIO-PHARMA CO., LTD., priority 2004, published 2008)", "key": {"[1]": {"test_system": "gastric mucosal cells", "experiment": "Cytotoxicity of NSAIDs to gastric mucosal cells", "format": "cell-based", "settings": "order among the five NSAIDs of the same figure (FIG. 3 or FIG. 4)", "description": "Specifically, the cytotoxicity of 10 clinically used NSAIDs as measured by the decrease in cell viability (i.e., cytotoxicity due to necrosis/apoptosis as measured by the decrease in cell viability) was compared to their membrane toxicity determined by the liposome model."}, "[2]": {"experiment": "Calcein leakage from calcein-encapsulating liposome in the presence of NSAIDs (membrane toxicity)", "settings": "30° C., 10 min, fluorescence at 520 nm; order among the five NSAIDs of the same figure"}, "[3]": {"experiment": "Calcein leakage from liposome in the presence of an NSAID and the gastric mucosa-protecting agent teprenone", "settings": "for calcein leakage from liposome in the presence of NSAID and teprenone: teprenone 0, 10^-7 to 10^-4 M, 30° C., 10 min", "procedure": "Teprenone (product name, Selbex (registered trademark)) was used as the gastric mucosa-protecting agent and was used at concentrations of 0 M (Control), 10^−7 M, 10^−6 M, 10^−5 M and 10^−4 M.\nEach NSAID and teprenone at respective concentrations were added to the liposome solution obtained in Example 1. Each solution was incubated at 30° C. for 10 min. Subsequently, the fluorescence at 520 nm was measured for each solution to determine the calcein leakage from liposome (i.e., membrane toxicity)."}}}
{"compound": "Cc1ccc(-c2cc(C(F)(F)F)nn2-c2ccc(S(N)(=O)=O)cc2)cc1", "note": "[celecoxib]", "values": [{"measurement": "cytotoxicity to gastric mucosal cells (rank order)", "setting": "[1]", "value": "celecoxib>mefenamic acid>flufenamic acid>nimesulide>etodolac"}]}
{"compound": "O=C(O)Cc1ccccc1Nc1c(Cl)cccc1Cl", "note": "[diclofenac]", "values": [{"measurement": "cytotoxicity to gastric mucosal cells (rank order)", "setting": "[1]", "value": "indomethacin>diclofenac>flurbiprofen>ibuprofen>ketoprofen"}]}
{"compound": "CCc1cccc2c3c([nH]c12)C(CC)(CC(=O)O)OCC3", "note": "(stereo not drawn) [etodolac]", "values": [{"measurement": "cytotoxicity to gastric mucosal cells (rank order)", "setting": "[1]", "value": "celecoxib>mefenamic acid>flufenamic acid>nimesulide>etodolac"}]}
{"compound": "O=C(O)c1ccccc1Nc1cccc(C(F)(F)F)c1", "note": "[flufenamic acid]", "values": [{"measurement": "cytotoxicity to gastric mucosal cells (rank order)", "setting": "[1]", "value": "celecoxib>mefenamic acid>flufenamic acid>nimesulide>etodolac"}, {"measurement": "calcein leakage from the liposome (membrane toxicity), rank order", "setting": "[2]", "value": "decreased in the same order"}]}
{"compound": "CC(C(=O)O)c1ccc(-c2ccccc2)c(F)c1", "note": "(stereo not drawn) [flurbiprofen]", "values": [{"measurement": "cytotoxicity to gastric mucosal cells (rank order)", "setting": "[1]", "value": "indomethacin>diclofenac>flurbiprofen>ibuprofen>ketoprofen"}]}
{"compound": "COc1ccc2c(c1)c(CC(=O)O)c(C)n2C(=O)c1ccc(Cl)cc1", "note": "[indomethacin]", "values": [{"measurement": "cytotoxicity to gastric mucosal cells (rank order)", "setting": "[1]", "value": "indomethacin>diclofenac>flurbiprofen>ibuprofen>ketoprofen"}]}
{"compound": "CC(C(=O)O)c1cccc(C(=O)c2ccccc2)c1", "note": "(stereo not drawn) [ketoprofen]", "values": [{"measurement": "calcein leakage from the liposome (membrane toxicity), rank order", "setting": "[2]", "value": "decreased in the same order"}]}
{"compound": "Cc1cccc(Nc2ccccc2C(=O)O)c1C", "note": "[mefenamic acid]", "values": [{"measurement": "cytotoxicity to gastric mucosal cells (rank order)", "setting": "[1]", "value": "celecoxib>mefenamic acid>flufenamic acid>nimesulide>etodolac"}]}
{"compound": "CS(=O)(=O)Nc1ccc([N+](=O)[O-])cc1Oc1ccccc1", "note": "[nimesulide]", "values": [{"measurement": "cytotoxicity to gastric mucosal cells (rank order)", "setting": "[1]", "value": "celecoxib>mefenamic acid>flufenamic acid>nimesulide>etodolac"}]}
{"compound": "teprenone", "values": [{"measurement": "calcein leakage from liposome in the presence of NSAID and teprenone (repeat experiment)", "setting": "[3]; 0.05 mM and 0.1 mM celecoxib", "value": "reduced the calcein leakage from the liposome"}, {"measurement": "calcein leakage from liposome in the presence of NSAID and teprenone", "setting": "[3]; 0.08 mM celecoxib", "value": "the calcein leakage decreases as the amount of teprenone is increased"}, {"measurement": "calcein leakage from liposome in the presence of NSAID and teprenone (repeat experiment)", "setting": "[3]; 2 mM and 10 mM diclofenac", "value": "reduced the calcein leakage from the liposome"}, {"measurement": "calcein leakage from liposome in the presence of NSAID and teprenone (repeat experiment)", "setting": "[3]; 4 mM and 8 mM indomethacin", "value": "reduced the calcein leakage from the liposome"}, {"measurement": "calcein leakage from liposome in the presence of NSAID and teprenone", "setting": "[3]; 4 mM diclofenac", "value": "the calcein leakage decreases as the amount of teprenone is increased"}, {"measurement": "calcein leakage from liposome in the presence of NSAID and teprenone", "setting": "[3]; 6 mM indomethacin", "value": "the calcein leakage decreases as the amount of teprenone is increased"}, {"measurement": "calcein leakage from liposome in the presence of NSAID and teprenone", "setting": "[3]; 20 mM ibuprofen", "value": "the calcein leakage decreases as the amount of teprenone is increased"}, {"measurement": "calcein leakage from liposome in the presence of NSAID and teprenone (repeat experiment)", "setting": "[3]; 40 mM and 60 mM ibuprofen", "value": "reduced the calcein leakage from the liposome"}]}
